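Following 48 hours of exposure in 96-well plates, responses at five concentrations were used to interpolate endpoints linearly. TGI: concentration producing complete growth inhibition.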
Legend:
Assay in all cases: NCI-60 cell line screen, 48 h
KM12 colon = test system: KM12 colon
HS 578T breast = test system: HS 578T breast
OVCAR-3 ovarian = test system: OVCAR-3 ovarian
SK-MEL-5 melanoma = test system: SK-MEL-5 melanoma
SR leukemia = test system: SR leukemia
MDA-MB-435 = test system: MDA-MB-435
OVCAR-5 ovarian = test system: OVCAR-5 ovarian
NCI-H23 lung = test system: NCI-H23 lung
COLO 205 colon = test system: COLO 205 colon
CCRF-CEM leukemia = test system: CCRF-CEM leukemia
SK-MEL-2 melanoma = test system: SK-MEL-2 melanoma
MDA-N = test system: MDA-N
U251 CNS = test system: U251 CNS
RPMI-8226 leukemia = test system: RPMI-8226 leukemia
HL-60(TB) leukemia = test system: HL-60(TB) leukemia
MDA-MB-231 breast = test system: MDA-MB-231 breast
HOP-62 NSCLC = test system: HOP-62 NSCLC
NCI-H226 lung = test system: NCI-H226 lung
PC-3 prostate = test system: PC-3 prostate
ACHN renal = test system: ACHN renal

| Structure (SMILES) | TGI (KM12 colon) | TGI (HS 578T breast) | TGI (OVCAR-3 ovarian) | TGI (SK-MEL-5 melanoma) | TGI (SR leukemia) | TGI (MDA-MB-435) | TGI (OVCAR-5 ovarian) | TGI (NCI-H23 lung) | TGI (COLO 205 colon) | TGI (CCRF-CEM leukemia) | TGI (SK-MEL-2 melanoma) | TGI (MDA-N) | TGI (U251 CNS) | TGI (RPMI-8226 leukemia) | TGI (HL-60(TB) leukemia) | TGI (MDA-MB-231 breast) | TGI (HOP-62 NSCLC) | TGI (NCI-H226 lung) | TGI (PC-3 prostate) | TGI (ACHN renal) |
| --- | --- | --- | --- | --- | --- | --- | --- | --- | --- | --- | --- | --- | --- | --- | --- | --- | --- | --- | --- | --- |
| CN(C)c1ccc(/C=C2/SC(=S)NC2=O)cc1 | > 100 µM | > 100 µM | > 100 µM | > 100 µM | > 100 µM | > 100 µM | 72.6 µM | > 100 µM | > 100 µM | > 100 µM | > 100 µM | > 100 µM | > 100 µM | > 100 µM | > 100 µM | > 100 µM | > 100 µM | > 100 µM | > 100 µM | > 100 µM |
| C[n+]1c2ccccc2c(CNc2ccc(S(=O)(=O)N=C(N)N)cc2)c2ccccc21 | 27.7 µM | – | 48.7 µM | 22.8 µM | – | – | > 100 µM | 33.3 µM | – | 7.16 µM | 59.5 µM | – | – | 23.5 µM | 7.47 µM | – | 40 µM | 10.9 µM | – | > 100 µM |
| S=C1SC(=Nc2ccccc2)C(=Nc2ccccc2)N1c1ccccc1 | > 100 µM | > 100 µM | > 100 µM | > 100 µM | > 100 µM | > 100 µM | > 100 µM | > 100 µM | > 100 µM | > 100 µM | > 100 µM | > 100 µM | > 100 µM | > 100 µM | – | > 100 µM | > 100 µM | > 100 µM | > 100 µM | – |
| Cc1cc(NC(=S)Nc2ccccc2)c(NC(=S)Nc2ccccc2)cc1C | > 100 µM | – | 50.9 µM | > 100 µM | – | – | > 100 µM | > 95.1 µM | > 74.3 µM | > 74.9 µM | > 31.6 µM | – | > 63.4 µM | 40.4 µM | 5.23 µM | – | > 100 µM | > 100 µM | – | – |
| COC(=O)CCC(=O)CC(=O)C1=NS(=O)(=O)c2nc(S(N)(=O)=O)c(Cl)cc2N1 | > 100 µM | – | > 100 µM | > 100 µM | > 100 µM | – | > 100 µM | > 100 µM | > 100 µM | > 100 µM | > 100 µM | – | > 100 µM | > 100 µM | > 100 µM | – | > 100 µM | > 100 µM | – | > 100 µM |
| CC(C)(C)NCc1cc(Nc2ccnc3cc(Cl)ccc23)cc(-c2ccc(Cl)cc2)c1O | 10.4 µM | 6.37 µM | 8.75 µM | 3.15 µM | 4.97 µM | 3.64 µM | 16.3 µM | 14 µM | 3.35 µM | 5.77 µM | 4.02 µM | 3.19 µM | 8.65 µM | 4.12 µM | 4.01 µM | 11.7 µM | 6.38 µM | 22.3 µM | 8.22 µM | 15 µM |
| COCc1nc2c(OC)cc(-c3nc4nc(N5CCN(C)CC5)ccc4[nH]3)c(OC)c2[nH]1 | > 100 µM | > 100 µM | 83 µM | 38.8 µM | > 100 µM | > 100 µM | > 100 µM | > 100 µM | > 100 µM | 75.9 µM | – | > 100 µM | > 100 µM | – | > 100 µM | > 100 µM | > 100 µM | > 100 µM | > 100 µM | > 100 µM |
| COCO[C@@H]1C[C@H]2C(O)Nc3ccccc3C(=O)N2C1 (stereo partly specified) | > 100 µM | > 100 µM | > 100 µM | > 100 µM | > 100 µM | > 100 µM | > 100 µM | > 100 µM | > 100 µM | > 100 µM | > 100 µM | > 100 µM | > 100 µM | > 100 µM | > 100 µM | > 100 µM | > 100 µM | > 100 µM | > 100 µM | > 100 µM |
| O=c1[nH]c(Nc2ccc(F)c(Cl)c2)nc2nc[nH]c12 | > 100 µM | > 100 µM | > 100 µM | > 100 µM | – | > 100 µM | > 100 µM | > 100 µM | > 100 µM | > 100 µM | > 100 µM | > 100 µM | > 100 µM | > 100 µM | > 100 µM | > 100 µM | > 100 µM | > 100 µM | > 100 µM | > 100 µM |
| COc1cc2c(cc1OCCCOc1cc(-c3ccc(F)cc3)nc(C)n1)N=C[C@@H]1CCCN1C2=O | 36.2 µM | 94.3 µM | 29.4 µM | 40.9 µM | 27.4 µM | 28.5 µM | – | 29.4 µM | > 100 µM | 53.9 µM | 35.2 µM | – | 28.7 µM | > 100 µM | 54.1 µM | 30 µM | – | 30.5 µM | – | 30.4 µM |

— PubChem BioAssay (NCI)
